Converted amounts (≈) assume the structure as drawn. The source made the active and inactive calls. No cut-off for these calls is given here.
Experiments:
[1] = Inhibition of porcine platelets cPLA2 alpha using 1-stearoyl-2-arachidonoyl-sn-glycero-3-phosphocholine as substrate incubated for 60 mins by RP-HPLC -MS analysis; parameters: species or system Sus scrofa
Sus scrofa = species on record: Sus scrofa; assay: Inhibition of porcine platelets cPLA2 alpha using 1-stearoyl-2-arachidonoyl-sn-glycero-3-phosphocholine as substrate at 10 uM incubated for 60 mins by RP-HPLC -MS analysis relative to control
[2] = Drug metabolism in human CaCo-2 cells assessed as beta-oxidation of pentanoic acid chain by measuring 3-(5-{[5-Chloro-1-(2,4-dichlorobenzyl)indol-3-yl]methyl}-2H-tetrazol-2-yl) propionic acid formation at 10 uM; format: ADME, cell-based; conditions: caco-2, 10 µM
[3] = Lipophilicity, logP of compound in acetonitrile/phosphate buffered saline at pH 7.4 by RP-HPLC analysis; format: physicochemical
[4] = Apparent permeability coefficient in human CaCo-2 cells at 10 uM incubated for 2 hrs by HPLC-MS analysis; format: ADME, cell-based
[5] = Aqueous solubility of compound in phosphate buffered saline at pH 7.4 incubated for 10 min by RP-HPLC analysis; format: physicochemical

Row | SMILES | IC50 [1] [µM] | inhibition (Sus scrofa) | also measured
1 | O=C(O)c1ccc(OCCc2cn(Cc3ccc(Cl)cc3Cl)c3ccccc23)cc1 | 1.1 | – | –
2 | O=C(O)c1ccc(N/N=C/c2cn(Cc3ccccc3Oc3ccccc3)c3ccccc23)cc1 | – | 15% | –
3 | O=C(O)c1ccc2c(ccn2CCc2cn(Cc3ccc(Cl)cc3Cl)c3ccccc23)c1 | > 10 | 41% | –
4 | O=C(Cc1cn(Cc2ccc(Cl)cc2Cl)c2ccccc12)Oc1ccc(C(=O)O)cc1 | 3.2 | – | –
5 | O=C(O)CCCCn1nnc(Cc2cn(Cc3ccc(Cl)cc3Cl)c3cc(F)ccc23)n1 | 0.75 | – | –
6 | O=C(O)CCCCn1nnc(-c2cn(Cc3ccc(Cl)cc3Cl)c3ccccc23)n1 | > 10 | 48% | –
7 | O=C(O)c1ccc(N/N=C/c2ccc3c(ccn3Cc3ccc(Cl)cc3Cl)c2)cc1 | – | 30% | –
8 | COc1ccc2c(Cc3nnn(CCCCC(=O)O)n3)cn(Cc3ccc(Cl)cc3Cl)c2c1 | 4.6 | – | –
9 | O=C(O)CCCn1nnc(-c2cn(Cc3ccc(Cl)cc3Cl)c3ccccc23)n1 | > 10 | 22% | –
10 | O=C(O)CCCCn1nnc(Cc2cn(Cc3ccc(Cl)cc3Cl)c3ccc(OC(F)(F)F)cc23)n1 | 0.57 | – | –
11 | O=C(O)CCCCn1nnc(Cc2cn(Cc3ccc(Cl)cc3Cl)c3ccc(OCc4ccc(Cl)cc4)cc23)n1 | 5.3 | – | –
12 | Cc1noc(-c2cn(CCc3cn(Cc4ccc(Cl)cc4Cl)c4ccccc34)c3ccc(C(=O)O)cc23)n1 | > 10 | 47% | –
13 | O=C(O)c1ccc(N/N=C/c2cn(Cc3ccccc3)c3ccccc23)cc1 | – | 16% | –
14 | COc1ccc2c(c1)c(Cc1nnn(CCCCC(=O)O)n1)cn2Cc1ccc(Cl)cc1Cl | 4.7 | – | –
15 | O=C(O)CCCCn1nnc(Cc2cn(Cc3ccc(Cl)cc3Cl)c3cc(Cl)ccc23)n1 | 0.36 | – | –
16 | O=C(O)CCCCn1nnc(Cc2cn(Cc3ccc(Cl)cc3Cl)c3ccc(-c4ccc(Cl)cc4)cc23)n1 | 0.9 | – | –
17 | O=C(O)CCCCn1nnc(CCc2cn(Cc3ccc(Cl)cc3Cl)c3ccccc23)n1 | 4.8 | – | –
18 | O=C(O)c1ccc(OC(=O)c2cn(Cc3ccc(Cl)cc3Cl)c3ccccc23)cc1 | > 10 | 45% | –
19 | O=C(O)CCCCn1nnc(Cc2cn(Cc3ccc(Cl)cc3Cl)c3ccc(Cl)cc23)n1 | 0.071 | – | Drug metabolism [2]: Metabolite_Detected; logP [3]: 4.7; Papp at 2 h, 10 µM [4]: 15 ×10⁻⁶ cm/s; solubility at 10 min [5]: < 1 µg/mL
20 | O=C(O)c1ccc(Cn2nnc(Cc3cn(Cc4ccc(Cl)cc4Cl)c4ccccc34)n2)cc1 | 2.8 | – | –

Row | SMILES | IC50 [1] [µM] | inhibition (Sus scrofa) | also measured
21 | CN(/N=C/c1cn(Cc2ccc(Cl)cc2Cl)c2ccccc12)c1ccc(C(=O)O)cc1 | – | 27% | –
22 | O=C(CCc1cn(Cc2ccc(Cl)cc2Cl)c2ccccc12)Oc1ccc(C(=O)O)cc1 | 6 | – | –
23 | O=C(O)c1ccc(N/N=C/c2cn(Cc3ccc(Oc4ccccc4)cc3)c3ccccc23)cc1 | – | inactive | –
24 | O=C(O)CCCCCn1nnc(-c2cn(Cc3ccc(Cl)cc3Cl)c3ccccc23)n1 | 9 | – | –
25 | O=C(O)CCCCn1nnc(Cc2cn(Cc3ccc(Cl)cc3)c3ccccc23)n1 | 4.2 | – | –
26 | O=C(O)CCCCCn1nnc(Cc2cn(Cc3ccc(Cl)cc3Cl)c3ccccc23)n1 | 1.4 | – | –
27 | O=C(O)CCCCn1nnc(Cc2cn(Cc3c(Cl)cccc3Cl)c3ccccc23)n1 | > 10 | 19% | –
28 | O=C(O)c1ccc2c(cnn2CCc2cn(Cc3ccc(Cl)cc3Cl)c3ccccc23)c1 | 3.8 | – | –
29 | COc1ccc2c(c1)c(CC(=O)O)c(C)n2C(=O)c1ccc(Cl)cc1 [INDOMETHACIN] | – | – | logP [3]: 2.9; Papp at 2 h, 10 µM [4]: 27 ×10⁻⁶ cm/s; solubility at 10 min [5]: 260 µg/mL (≈ 727 µM)
30 | O=C(O)CCCCn1nnc(Cc2cn(Cc3ccc(-c4ccccc4)cc3)c3ccccc23)n1 | > 10 | 47% | –
31 | O=C(O)c1ccc2nn(CCc3cn(Cc4ccc(Cl)cc4Cl)c4ccccc34)cc2c1 | > 10 | 32% | –
32 | O=C(O)CCCCn1nnc(Cc2cn(Cc3ccc(Cl)cc3Cl)c3ccc(C(F)(F)F)cc23)n1 | 0.074 | – | logP [3]: 4.9; solubility at 10 min [5]: < 1 µg/mL
33 | COC(=O)c1cn(CCc2cn(Cc3ccc(Cl)cc3Cl)c3ccccc23)c2ccc(C(=O)O)cc12 | 7.1 | – | –
34 | O=C(O)CCCCn1nnc(Cc2cn(Cc3ccc(Cl)cc3Cl)c3cc(C(F)(F)F)ccc23)n1 | 0.17 | – | –
35 | O=C(O)CCc1ccc2c(c1)c(CCc1ccccc1)cn2-c1ccc(Oc2ccccc2)cc1 | 0.29 | – | logP [3]: 6.4; solubility at 10 min [5]: < 1 µg/mL
36 | O=C(O)c1ccc(N/N=C/c2cn(Cc3cccc(Oc4ccccc4)c3)c3ccccc23)cc1 | – | 17% | –
37 | O=C(O)c1ccc(N/N=C/c2cn(Cc3ccc(C(F)(F)F)cc3)c3ccccc23)cc1 | – | 15% | –
38 | O=C(O)CCCCn1nnc(Cc2cn(Cc3ccccc3)c3ccccc23)n1 | > 10 | 41% | –
39 | O=C(O)c1ccc(N/N=C/c2ccc3ccn(Cc4ccc(Cl)cc4Cl)c3c2)cc1 | – | 32% | –
40 | O=C(O)c1ccc2c(c1)c(C(=O)O)cn2CCc1cn(Cc2ccc(Cl)cc2Cl)c2ccccc12 | > 10 | 24% | –

Row | SMILES | IC50 [1] [µM] | inhibition (Sus scrofa) | also measured
41 | O=C(O)c1ccc2c(c1)c(C(=O)C(F)(F)F)cn2CCc1cn(Cc2ccc(Cl)cc2Cl)c2ccccc12 | 8 | – | –
42 | Cc1ccc(Cn2cc(Cc3nnn(CCCCC(=O)O)n3)c3ccccc32)cc1 | 7 | – | –
43 | O=C(O)c1ccc(N/N=C/c2cccc3c2ccn3Cc2ccc(Cl)cc2Cl)cc1 | – | 24% | –
44 | O=C(O)CCCn1nnc(Cc2cn(Cc3ccc(Cl)cc3Cl)c3ccccc23)n1 | > 10 | 32% | –
45 | O=C(O)CCCCn1nnc(Cc2cn(Cc3ccc(Cl)cc3Cl)c3ccc(F)cc23)n1 | 0.2 | – | logP [3]: 4.1; solubility at 10 min [5]: 74 µg/mL (≈ 155 µM)
46 | O=C(O)c1ccc(N/N=C/c2cn(Cc3ccc(Cl)c(Cl)c3)c3ccccc23)cc1 | – | 20% | –
47 | Cc1ccc2c(Cc3nnn(CCCCC(=O)O)n3)cn(Cc3ccc(Cl)cc3Cl)c2c1 | 1 | – | –
48 | O=C(O)CCCCn1nnc(Cc2cn(Cc3ccc(Cl)cc3Cl)c3ccc(-c4ccccc4)cc23)n1 | 3.2 | – | –
49 | O=C(O)CCCCn1nnc(Cc2cn(Cc3ccc(F)cc3)c3ccccc23)n1 | > 10 | 48% | –
50 | O=C(O)CCCCn1nnc(Cc2cn(Cc3cccc(Cl)c3)c3ccccc23)n1 | > 10 | 33% | –
51 | O=C(O)CCCCn1nnc(Cc2cn(Cc3ccc(Cl)cc3Cl)c3ccccc23)n1 | 0.71 | – | logP [3]: 4; solubility at 10 min [5]: 152 µg/mL (≈ 332 µM)
52 | Cc1c(CCOc2ccc(C(=O)O)cc2)c2cc(Cl)ccc2n1C(c1ccccc1)c1ccccc1 | 0.23 | – | logP [3]: 6.2; solubility at 10 min [5]: < 1 µg/mL
53 | O=C(O)CCCCn1nnc(Cc2cn(Cc3ccc(Cl)c(Cl)c3)c3ccccc23)n1 | 5.6 | – | –
54 | O=C(O)CCCn1nnc(CCc2cn(Cc3ccc(Cl)cc3Cl)c3ccccc23)n1 | > 10 | 23% | –
55 | O=C(O)c1ccc2nn(CCc3cn(Cc4ccc(Cl)cc4Cl)c4ccccc34)nc2c1 | 3.9 | – | –
56 | O=C(O)c1ccc(Cn2nnc(-c3cn(Cc4ccc(Cl)cc4Cl)c4ccccc34)n2)cc1 | > 10 | 37% | –
57 | O=C(O)c1ccc(N/N=C/c2cn(Cc3ccc(Cl)cc3Cl)c3ccccc23)cc1 | 22 | 21% | –
58 | Cc1ccc2c(c1)c(Cc1nnn(CCCCC(=O)O)n1)cn2Cc1ccc(Cl)cc1Cl | 0.21 | – | logP [3]: 4.6; solubility at 10 min [5]: 15 µg/mL (≈ 31.8 µM)
59 | O=C(O)CCCCn1nnc(Cc2cn(Cc3ccccc3Cl)c3ccccc23)n1 | 2.9 | – | –
60 | O=C(O)CCCCn1nnc(Cc2cn(Cc3ccc(C(F)(F)F)cc3)c3ccccc23)n1 | – | inactive | –

Source: ChEMBL document CHEMBL5344444, “1-Benzylindoles as inhibitors of cytosolic phospholipase A2α: synthesis, biological activity, aqueous solubility, and cell permeability” (RSC Med Chem, 2024)
